Measurements taken from article PMC10257182, “Discovery of senolytics using machine learning” (Nature Communications, 2023).
Values joined by “and” are separate entries in the source; they are usually repeats but may differ in a detail not shown here. Identical values can stand only once.

Columns and labels:
Type in all cases: cell-based, human
[1] = system: proliferating IMR90 cells; test: BrdU incorporation proliferation assay; conditions: for % BrdU positive cells, mean (Test details, Mean 2) / % BrdU positive cells: IMR90 cells; for % BrdU positive cells, mean (Test details, Mean 2): n 4; for % BrdU positive cells: single replicates (SUP FIG 9G); for proliferation by BrdU incorporation, in words: proliferating IMR90 cells, 10 nM
Description: 5-bromo-2′-deoxyuridine (BrdU) incorporation was used to measure the number of cells actively replicating DNA. Cells were incubated with 10 μM BrdU (85811, Sigma) for 18 h. After that, cells were fixed with 4% Paraformaldehyde, permeabilised, blocked and then stained for immunofluorescence using BrdU primary antibody (555627 BD Pharmigen), Alexa fluor secondary for detection, and DAPI staining for cell counting. Acquisition was done with a Nikon TI2 microscope and analysis was performed with ImageJ for cell counting.

[2] = system: Na+/K+ ATPase pump (intracellular K+) in senescent IMR90 ER:RAS cells; test: Intracellular K+ determination with Asante staining, OIS; conditions: for Asante Mean intensity / Mean (Asante Mean intensity, Tukey test details): FIG 4E, ER:RAS cells; for Asante Mean intensity: individual replicate values; for Mean (Asante Mean intensity, Tukey test details): mean of n=7
Description: (§1) Cells were cultured for control and senescent phenotype and then treated with the senolytics oleandrin, ouabain and periplocin at 10 nM for 72 h. Asante (Asante Potassium Green-2 AM, abcam ab142806) was added to the culture 30 min before fixation, following manufacturer instructions. DAPI staining was done before image acquisition on Nikon TI2 microscope (20x). Image analysis was performed using ImageJ 1.53k for setting intensity threshold and measuring mean intensity.

[3] = system: IMR90 cells at passage 27 (replicative senescence); test: Cell survival assay using crystal violet staining, replicative senescence; design: % Cell Survival: concentration or dose not given beside the values; conditions: for % Cell Survival: Replicative Senescence (RS) cells, individual replicate values, Control DMSO = 100
Description: (§2) IMR90 (CCL-186) human foetal lung fibroblasts and A549 (CCL-185) human lung adenocarcinoma cells were obtained from the American Type Culture Collection (ATCC, Manassas, VA). The cell lines were confirmed to be mycoplasma negative (Lonza MycoAlert, cat #LT07-118). IMR90 ER:RAS is a derivative of IMR90 cells expressing a switchable version of oncogenic H-Ras[84]. IMR90 ER:RAS and A549 cells were maintained in Dulbecco’s Modified Eagle Medium (DMEM, ThermoFisher) supplemented with foetal bovine serum (10%), L-glutamine (2 mM, ThermoFisher), and antibiotic-antimycotic solution (1%, ThermoFisher) and incubated under standard tissue culture conditions (37 °C and 5% CO2). For induction of the senescent phenotype, IMR90-ER:RAS cells were cultured in hydroxytamoxifen (4-OHT) (Sigma) added media at 100 nM final concentration. IMR90 were kept in culture for over 27 passages for replicative senescence. Cells were tested for mycoplasma on a regular basis.
(§3) Equal numbers of control and senescent cells were plated at high density on multiwell plates just before senolytic treatment addition. After treatment, cells were fixed on 0.5% glutaraldehyde (Sigma) and then dried at RT overnight. Then, wells were stained with crystal violet solution for 3 h, washed and dried. Once they were completely dry, the plates were scanned for records. Quantification was performed extracting the staining with 1% acetic acid and measuring the final solution by absorbance at 595 nm.

[4] = system: A549 cells treated with 100 μM etoposide; test: Cell survival assay using crystal violet staining, TIS, senescent cells; conditions: for % Cell Survival: Etoposide-treated (senescent) cells, Control DMSO = 100, single replicates (SUP FIG 9E)
Description: as §3, with “nm. […]” for “nm.”
(§4) cells per condition is indicated. (d) Cell survival assay measuring the senolytic effect in lung cancer senescent cells. The panels show a representative crystal violet staining of tissue culture dishes of confluent A549 cells treated with 100 μM etoposide and control A549 cells, all treated with 10 nM oleandrin, ouabain and periplocin, and DMSO as vehicle control for 72 hours as indicated. (e) Graph representing the cell survival by quantification of the crystal violet staining of the experiment described in (d), as described in Methods. Data represented as individual datapoints, and bars and error bars representing the mean ± SEM of 14 independent experiments. Statistical analysis was performed using a one-way ANOVA (Tukey’s test) for multiple comparisons. […]
(§5) Scale bars represent 100 μm. ns = not significant, * = p < 0.05, ** = p < 0.01, *** = p < 0.001, **** = p < 0.0001. Source data are provided as a Source Data file.

[5] = system: Na+/K+ ATPase pump (intracellular K+) in IMR90 cells at passage 27; test: Intracellular K+ determination with Asante staining, replicative senescence; conditions: for Asante Mean intensity / Asante Mean intensity, group mean (Test details, Mean 2): Replicative Senescence cells; for Asante Mean intensity: individual replicate values; for Asante Mean intensity, group mean (Test details, Mean 2): mean of n=6
Description: as §1

[6] = system: IMR90 cells at passage 13 (control); conditions: for Mean (cell survival, Tukey test details): FIG 4C, Young (control) cells, mean of n=12 as fraction of Young DMSO = 1
Description: as §2, §3

[7] = system: A549 cells treated with 100 μM etoposide; test: Cell survival assay using crystal violet staining, TIS, senescent cells; conditions: fraction of Control DMSO = 1, n 15
[8] = system: control IMR90 ER:STOP cells; test: Cell survival assay using crystal violet staining, OIS, control cells; design: % Cell Survival: concentration or dose not given beside the values; conditions: for % Cell Survival / Mean (cell survival, Tukey test details): FIG 4B, ER:STOP cells; for % Cell Survival: individual replicate values, ER:STOP DMSO = 100; for Mean (cell survival, Tukey test details): mean of n=12 as fraction of STOP DMSO = 1
Description: as §3

[9] = system: caspase 3/7 activity in senescent IMR90 ER:RAS cells; test: Caspase 3/7 activity assay; design: Caspase 3/7 activity time course (SUP FIG 9F) / Caspase 3/7 activity time course (SUP FIG 9F exp not shown): unit not given here; conditions: for Caspase 3/7 activity time course (SUP FIG 9F) / Caspase 3/7 activity time course (SUP FIG 9F exp not shown): ER:RAS cells; for Caspase 3/7 activity time course (SUP FIG 9F exp not shown): second experiment, data not shown; for Casp3/7 activity (percentage of green fluorescent cells): ER:RAS, 100 nM 4OHT, 10 nM compound, 35 h
Description: IMR90 ER:STOP and IMR90 ER:RAS cells were cultured with 100 nM 4-OHT for 5 days. Cell were then plated in a multiwell plate at high density. Once cells were attached, Caspase 3/7 probe (C10423 Invitrogen) and senolytic drugs, oleandrin, ouabain and periplocin at 10 nM, were added to the media and cultured for 36 h. Time lapse imaging was recorded every hour on a Leica AF6500 microscope (10x). ImageJ 1.53k was used for positive cell counting.

control A549 cells = test: Cell survival assay using crystal violet staining, TIS, control cells; conditions: for % Cell Survival: Control (no etoposide) cells, Control DMSO = 100, single replicates (SUP FIG 9E)
Description: as §3, with “nm. […]” for “nm.”
as §4, §5

[10] = replicative senescence IMR90, 10 nM, 72 h

Structure (SMILES) | % BrdU positive cells, mean (Test details, Mean 2) [1] | % BrdU positive cells [1] | proliferation by BrdU incorporation, in words [1] | Asante Mean intensity [2] | Mean (Asante Mean intensity, Tukey test details) [2] | % Cell Survival ([3]; FIG 4C) | % Cell Survival [4] | Asante Mean intensity [5] | Asante Mean intensity, group mean (Test details, Mean 2) [5] | Mean (cell survival, Tukey test details) [6] | Cell survival, mean (Test details, Mean 2) [7] | % Cell Survival [8] | Mean (cell survival, Tukey test details) [8] | Caspase 3/7 activity time course (SUP FIG 9F) ([9]; 01:00:00 hours) | Caspase 3/7 activity time course (SUP FIG 9F exp not shown) ([9]; 01:00:00 hours) | Caspase 3/7 activity time course (SUP FIG 9F) ([9]; 05:00:00 hours) | Caspase 3/7 activity time course (SUP FIG 9F exp not shown) ([9]; 05:00:00 hours) | Caspase 3/7 activity time course (SUP FIG 9F) ([9]; 10:00:00 hours) | Caspase 3/7 activity time course (SUP FIG 9F exp not shown) ([9]; 10:00:00 hours) | Caspase 3/7 activity time course (SUP FIG 9F) ([9]; 15:00:00 hours) | further results
CO[C@H]1C[C@H](O[C@H]2CC[C@]3(C)[C@H]4CC[C@]5(C)[C@@H](C6=CC(=O)OC6)CC[C@]5(O)[C@@H]4CC[C@]3(O)C2)O[C@H](C)[C@H]1O[C@@H]1O[C@H](CO)[C@@H](O)[C@H](O)[C@H]1O [Periplocin, periplocin] | 68.52% | 63.29% and 64.13% and 67.53% and 79.11% | none of the cardiac glycosides induced unwanted changes in proliferation | 75.6 and 74 and 75.4 and 73.1 and 78 and 73 and 65.7 | 73.54 | 127.6% and 99.2% and 95.4% and 100.9% and 115.7% and 129.6% and 84.9% and 94.7% and 133.6% and 88.7% and 125.7% and 118.8% | 78.5% and 85.2% and 87.1% and 66.7% and 80.4% and 88.8% and 86.5% and 120% and 114.9% and 68.8% and 88.3% and 87.7% and 111.9% and 81.2% | 152.4 and 152.1 and 153.1 and 152.9 and 152.7 | 152.6 | 0.8921 | 0.873 | 103.3% and 93.7% and 87.3% and 112.7% and 104.8% and 100.7% and 97.3% and 88.4% and 100.5% and 85.6% and 102.9% and 98.7% | 0.9799 | 1.7 | 0.05 | 2 | 0.2 | 2.7 | 1.2 | 2.7 | cytotoxic activity (crystal violet), in words ([8]; IMR90-ER:STOP proliferating control cells, 10 nM, 72 h): no cytotoxic activity; Caspase 3/7 activity time course (SUP FIG 9F exp not shown) ([9]; 15:00:00 hours): 1.2; Caspase 3/7 activity time course (SUP FIG 9F) ([9]; 20:00:00 hours): 3; Caspase 3/7 activity time course (SUP FIG 9F exp not shown) ([9]; 20:00:00 hours): 2.55; Caspase 3/7 activity time course (SUP FIG 9F) ([9]; 1 day, 1:00:00): 3.5; Caspase 3/7 activity time course (SUP FIG 9F exp not shown) ([9]; 1 day, 1:00:00): 3.9; Caspase 3/7 activity time course (SUP FIG 9F) ([9]; 1 day, 6:00:00): 4; Caspase 3/7 activity time course (SUP FIG 9F exp not shown) ([9]; 1 day, 6:00:00): 6.15; Caspase 3/7 activity time course (SUP FIG 9F) ([9]; 1 day, 11:00:00): 4.8; Caspase 3/7 activity time course (SUP FIG 9F exp not shown) ([9]; 1 day, 11:00:00): 8.35; Casp3/7 activity (percentage of green fluorescent cells) [9]: 6.2%; % Cell Survival (control A549 cells): 90% and 112.2% and 107.2% and 111% and 106.6% and 104.9% and 102.9% and 93.8% and 98.6% and 110.6% and 109.7% and 108.4% and 94.2% and 93.9%
CO[C@H]1C[C@H](O[C@H]2CC[C@@]3(C)[C@H](CC[C@@H]4[C@@H]3CC[C@]3(C)[C@@H](C5=CC(=O)OC5)[C@@H](OC(C)=O)C[C@]43O)C2)O[C@@H](C)[C@@H]1O [Oleandrin, oleandrin] | 69.23% | 69.38% and 67.43% and 69.89% and 70.23% | none of the cardiac glycosides induced unwanted changes in proliferation | 67.9 and 72 and 68.8 and 66.6 and 77 and 61.9 | 68.87 | 54.5% and 40.7% and 48% and 38.1% and 50.7% and 43.4% and 31.1% and 55% and 50.3% and 37.4% and 44.9% and 40.3% | 39.4% and 53.4% and 51.6% and 7.8% and 48.5% and 38.4% and 46.7% and 32.6% and 33.1% and 7.9% and 36.2% and 37.5% and 30.5% and 41.5% | 145.1 and 146.6 and 146 and 145.5 and 145.6 | 145.7 | 0.8637 | 0.3827 | 89.1% and 95.2% and 73.8% and 89.4% and 107.6% and 89% and 95.8% and 77.8% and 100% and 72.7% and 87.5% and 82.7% | 0.8838 | 0.9 | 0.75 | 1.1 | 1.25 | 2.3 | 3.9 | 3 | K+ intracellular concentration, in words ([2]; OIS IMR90, 10 nM, 72 h): significantly reduced; Mean (cell survival, Tukey test details) ([3]; FIG 4C, RS cells, mean of n=12 as fraction of Young DMSO = 1): 0.4453; cellular content in senescent cultures (crystal violet), in words [3, 10]: significant reduction in cellular content; cellular content in senescent cultures (crystal violet), in words ([4]; A549 TIS with etoposide, 10 nM, 72 h): significant reduction in cellular content; K+ intracellular concentration, in words [5, 10]: significantly reduced; cellular density in non-senescent control cultures, in words ([6]; IMR90 control, 10 nM, 72 h): unchanged; Caspase 3/7 activity time course (SUP FIG 9F exp not shown) ([9]; 15:00:00 hours): 7.9; Caspase 3/7 activity time course (SUP FIG 9F) ([9]; 20:00:00 hours): 4; Caspase 3/7 activity time course (SUP FIG 9F exp not shown) ([9]; 20:00:00 hours): 13.8; Caspase 3/7 activity time course (SUP FIG 9F) ([9]; 1 day, 1:00:00): 7.8; Caspase 3/7 activity time course (SUP FIG 9F exp not shown) ([9]; 1 day, 1:00:00): 16.55; Caspase 3/7 activity time course (SUP FIG 9F) ([9]; 1 day, 6:00:00): 11; Caspase 3/7 activity time course (SUP FIG 9F exp not shown) ([9]; 1 day, 6:00:00): 18.55; Caspase 3/7 activity time course (SUP FIG 9F) ([9]; 1 day, 11:00:00): 13.5; Caspase 3/7 activity time course (SUP FIG 9F exp not shown) ([9]; 1 day, 11:00:00): 19.65; Casp3/7 activity (percentage of green fluorescent cells) [9]: 92.2%; cellular density in non-senescent control cultures, in words (control A549 cells; A549 control, 10 nM, 72 h): unchanged; % Cell Survival (control A549 cells): 99.6% and 145% and 133.8% and 119.3% and 135.9% and 111.6% and 113.5% and 93% and 97.3% and 116% and 109.5% and 116.3% and 95.4% and 109%
